Numbers after ± are expanded uncertainties.
Assay: heat capacity at constant pressure per volume; xn = mol fraction of the nth substance listed
Conditions: 102.6 kPa, Liquid, DSC, Micro DSC III, x2 = 0.048

For `Brc1ccccc1` [bromobenzene] + CCCCCC[n+]1ccn(C)c1.O=S(=O)([N-]S(=O)(=O)C(F)(F)F)C(F)(F)F, the heat capacity (287.65 K) was 1529000 ± 59000 J/K/m3, the heat capacity (287.9 K) was 1529000 ± 59000 J/K/m3 and the heat capacity (288.19 K) was 1529000 ± 59000 J/K/m3. For the same compound, the heat capacity (288.46 K) was 1529000 ± 59000 J/K/m3, the heat capacity (288.75 K) was 1530000 ± 60000 J/K/m3 and the heat capacity (289.02 K) was 1531000 ± 59000 J/K/m3. It also gave a heat capacity (289.31 K) of 1531000 ± 59000 J/K/m3, a heat capacity (289.59 K) of 1531000 ± 59000 J/K/m3 and a heat capacity (289.87 K) of 1532000 ± 59000 J/K/m3. The heat capacity (290.14 K) was 1533000 ± 59000 J/K/m3, the heat capacity (290.43 K) was 1533000 ± 59000 J/K/m3 and the heat capacity (290.74 K) was 1533000 ± 59000 J/K/m3. For the same compound, the heat capacity (290.98 K) was 1533000 ± 59000 J/K/m3, the heat capacity (291.26 K) was 1534000 ± 59000 J/K/m3 and the heat capacity (291.54 K) was 1535000 ± 59000 J/K/m3. For the same compound, the heat capacity (291.82 K) was 1537000 ± 60000 J/K/m3, the heat capacity (292.1 K) was 1539000 ± 60000 J/K/m3 and the heat capacity (292.38 K) was 1541000 ± 60000 J/K/m3. It also gave a heat capacity (292.7 K) of 1546000 ± 60000 J/K/m3, a heat capacity (292.8 K) of 1536000 ± 60000 J/K/m3 and a heat capacity (292.98 K) of 1534000 ± 59000 J/K/m3. It also gave a heat capacity (293.27 K) of 1533000 ± 59000 J/K/m3, a heat capacity (293.53 K) of 1533000 ± 59000 J/K/m3 and a heat capacity (293.82 K) of 1533000 ± 59000 J/K/m3. For the same compound, the heat capacity (294.09 K) was 1533000 ± 59000 J/K/m3, the heat capacity (294.37 K) was 1533000 ± 59000 J/K/m3 and the heat capacity (294.66 K) was 1533000 ± 59000 J/K/m3. The heat capacity (294.94 K) was 1533000 ± 59000 J/K/m3, the heat capacity (295.22 K) was 1534000 ± 59000 J/K/m3 and the heat capacity (295.5 K) was 1534000 ± 59000 J/K/m3. For the same compound, the heat capacity (295.78 K) was 1534000 ± 59000 J/K/m3, the heat capacity (296.06 K) was 1534000 ± 59000 J/K/m3 and the heat capacity (296.34 K) was 1534000 ± 59000 J/K/m3. The heat capacity (296.62 K) was 1534000 ± 59000 J/K/m3, the heat capacity (296.9 K) was 1534000 ± 59000 J/K/m3 and the heat capacity (297.18 K) was 1534000 ± 59000 J/K/m3. It also gave a heat capacity (297.46 K) of 1535000 ± 59000 J/K/m3, a heat capacity (297.74 K) of 1535000 ± 59000 J/K/m3 and a heat capacity (298.02 K) of 1536000 ± 59000 J/K/m3. It also gave a heat capacity (298.3 K) of 1536000 ± 59000 J/K/m3, a heat capacity (298.58 K) of 1536000 ± 59000 J/K/m3 and a heat capacity (298.86 K) of 1536000 ± 59000 J/K/m3. For the same compound, the heat capacity (299.14 K) was 1536000 ± 59000 J/K/m3, the heat capacity (299.42 K) was 1537000 ± 60000 J/K/m3 and the heat capacity (299.7 K) was 1537000 ± 60000 J/K/m3. For the same compound, the heat capacity (299.98 K) was 1537000 ± 60000 J/K/m3, the heat capacity (300.26 K) was 1537000 ± 60000 J/K/m3 and the heat capacity (300.54 K) was 1538000 ± 60000 J/K/m3. For the same compound, the heat capacity (300.82 K) was 1538000 ± 60000 J/K/m3, the heat capacity (301.1 K) was 1538000 ± 60000 J/K/m3 and the heat capacity (301.33 K) was 1538000 ± 60000 J/K/m3. The heat capacity (301.6 K) was 1538000 ± 60000 J/K/m3, the heat capacity (302.37 K) was 1539000 ± 60000 J/K/m3 and the heat capacity (302.98 K) was 1539000 ± 60000 J/K/m3. For the same compound, the heat capacity (303.6 K) was 1539000 ± 60000 J/K/m3, the heat capacity (304.21 K) was 1540000 ± 60000 J/K/m3 and the heat capacity (304.82 K) was 1540000 ± 60000 J/K/m3. The heat capacity (305.43 K) was 1541000 ± 60000 J/K/m3, the heat capacity (306.05 K) was 1541000 ± 60000 J/K/m3 and the heat capacity (306.66 K) was 1541000 ± 60000 J/K/m3. For the same compound, the heat capacity (307.27 K) was 1542000 ± 60000 J/K/m3, the heat capacity (307.88 K) was 1542000 ± 60000 J/K/m3 and the heat capacity (308.5 K) was 1542000 ± 60000 J/K/m3. The heat capacity (309.11 K) was 1543000 ± 60000 J/K/m3, the heat capacity (309.72 K) was 1543000 ± 60000 J/K/m3 and the heat capacity (310.34 K) was 1544000 ± 60000 J/K/m3. The heat capacity (310.95 K) was 1544000 ± 60000 J/K/m3, the heat capacity (311.56 K) was 1545000 ± 60000 J/K/m3 and the heat capacity (312.18 K) was 1545000 ± 60000 J/K/m3. For the same compound, the heat capacity (312.79 K) was 1545000 ± 60000 J/K/m3, the heat capacity (313.4 K) was 1546000 ± 60000 J/K/m3 and the heat capacity (314.01 K) was 1546000 ± 60000 J/K/m3. For the same compound, the heat capacity (314.63 K) was 1547000 ± 60000 J/K/m3, the heat capacity (315.24 K) was 1547000 ± 60000 J/K/m3 and the heat capacity (315.85 K) was 1548000 ± 60000 J/K/m3. It also gave a heat capacity (316.46 K) of 1548000 ± 60000 J/K/m3, a heat capacity (317.08 K) of 1548000 ± 60000 J/K/m3 and a heat capacity (317.69 K) of 1549000 ± 60000 J/K/m3. It also gave a heat capacity (318.3 K) of 1549000 ± 60000 J/K/m3, a heat capacity (318.92 K) of 1550000 ± 60000 J/K/m3 and a heat capacity (319.53 K) of 1550000 ± 60000 J/K/m3. The heat capacity (320.14 K) was 1551000 ± 60000 J/K/m3, the heat capacity (320.45 K) was 1551000 ± 60000 J/K/m3 and the heat capacity (320.75 K) was 1551000 ± 60000 J/K/m3. The heat capacity (321.98 K) was 1552000 ± 60000 J/K/m3, the heat capacity (322.59 K) was 1552000 ± 60000 J/K/m3 and the heat capacity (323.21 K) was 1553000 ± 60000 J/K/m3. It also gave a heat capacity (323.82 K) of 1553000 ± 60000 J/K/m3, a heat capacity (324.45 K) of 1553000 ± 60000 J/K/m3 and a heat capacity (325.05 K) of 1554000 ± 60000 J/K/m3. It also gave a heat capacity (325.66 K) of 1554000 ± 60000 J/K/m3, a heat capacity (326.27 K) of 1555000 ± 60000 J/K/m3 and a heat capacity (326.88 K) of 1555000 ± 60000 J/K/m3. The heat capacity (327.5 K) was 1556000 ± 60000 J/K/m3, the heat capacity (328.11 K) was 1556000 ± 60000 J/K/m3 and the heat capacity (328.72 K) was 1557000 ± 60000 J/K/m3. It also gave a heat capacity (329.33 K) of 1557000 ± 60000 J/K/m3, a heat capacity (329.95 K) of 1558000 ± 60000 J/K/m3 and a heat capacity (330.56 K) of 1558000 ± 60000 J/K/m3. For the same compound, the heat capacity (331.02 K) was 1559000 ± 60000 J/K/m3.

— the NIST ThermoML archive (doi:10.1016/j.fluid.2016.02.011)
